Test results reported in patent US11226337B2, “Chemoproteomic profiling of protein electrophilic and oxidative post-translational modifications” (Zenagem, LLC, priority 2017, dated 2022).

Tests used:
AMD1 [1] = target: T1, AMD1 (Homo sapiens, UniProt P17707); experiment: expression and probe 1 labelling of endogenous AMD1 after DFMO; type: cell-based; conditions: HEK293T, DFMO 5 mM 48 h, 10 μM L-methionine
T1 construct: Full-length genes encoding three probe 1- and one probe 2-targeted proteins were amplified from a cDNA library; expressed in transfected cells; host or cells: HEK293T
T1 sequence (P17707 68-334 limits assumed): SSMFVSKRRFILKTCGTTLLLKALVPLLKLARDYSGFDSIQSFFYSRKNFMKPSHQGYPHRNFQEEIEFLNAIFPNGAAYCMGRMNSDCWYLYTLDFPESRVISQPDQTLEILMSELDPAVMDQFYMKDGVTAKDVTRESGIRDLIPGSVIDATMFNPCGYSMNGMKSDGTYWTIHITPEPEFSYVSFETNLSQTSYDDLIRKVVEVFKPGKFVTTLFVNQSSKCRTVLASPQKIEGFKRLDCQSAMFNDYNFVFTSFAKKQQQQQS
T1 sequence (P17707 1-67 limits assumed): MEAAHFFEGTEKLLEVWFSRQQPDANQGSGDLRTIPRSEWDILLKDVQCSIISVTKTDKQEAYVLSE
Procedure: To enhance expression and labelling of endogenous AMD1, HEK293T cells were treated with difluoromethylornithine (DFMO; purchased from Santa Cruz Biotechnology) (5 mM) for 48 h in RPMI 1640 media (Fisher Scientific, A14517-01) containing 10 μM L-methionine. Cells were washed and treated with probe 1 in the absence of methionine. […] Probe 1-labelling, proteome preparation, fluorophore conjugation, gel-based analysis and western blotting were performed as described above in Examples 2 and 3. Band intensities were quantified using ImageJ software^75. […] Briefly, about 0.5 mg soluble proteomes isolated from probe 1-labelled AMD1-transfected cells grown in low versus high methionine were each diluted to 1 mL with 50 mM Na-HEPES buffer (pH 7.5) supplemented with 500 mM NaCl and 1% Triton X-100. Each proteome was incubated overnight at 4° C. by rotation with a pre-equilibrated slurry (25 μL resin (CV), anti-FLAG M2 affinity gel, Sigma). The resin was washed by resuspension and centrifugation with the same buffer supplemented with 500 mM NaCl (5×1 mL) followed by 100 mM NaCl (2×1 mL). The bound AMD1 protein was eluted in 100 μL of low salt buffer containing […] (FLAG)3 peptide [DYKDHD-(G)-DYKDHD-(I)-DYKD4K] (SEQ ID NO: 47). To prevent contamination from the excess (FLAG)3 peptide in the elution, the protein was purified by gel. […]

AMD1 [2] = target: T1, AMD1; conditions: literature statement; cited from earlier work

difluoromethylornithine [DFMO]
change in endogenous active AMD1 detected by probe 1 (AMD1 [1]): DMFO-induced changes in the endogenous concentration of active AMD1 | effect on expression of AMD1 (AMD1 [2]): increase the expression of AMD1
